Data as given in paper PMC7801115, “Preclinical in vitro screening of newly synthesised amidino substituted benzimidazoles and benzothiazoles” (Journal of Enzyme Inhibition and Medicinal Chemistry, 2021).
Counter-ions that a name gives are not always drawn.

Columns and labels:
A549 [1] = assay: BrdU proliferation assay, 3D cell culture; assay type: cell-based; settings: Homo sapiens, A549, 3D cell culture, ±SD, N = 2
Description: (§1) Cells were grown in 96 well Perfecta 3 D hanging drop plates 5000 cell/well for 4 days until spheres were formed (and checked under the microscope). After sphere formation cells were treated with compounds followed by 72 h incubation. Cell viability assay was performed according to the manufacturer’s instruction, using CellTiter GLO 3 D for 3 D cell culture (Promega); cell incubation was 5 min on the shaker followed by 25 min incubation in the dark. Plates were read using PE EnVision luminescence. The results for each of tested compounds are reported as growth percentages from two independent concentrations curves compared with the untreated control cells after drug exposure.
(§2) Proliferation assay was performed using Cell Proliferation ELISA, BrdU (Sigma, St. Louis, MO, USA). Briefly, 48 h hours after compound addition, 10 µM of BrdU was added to each well and incubated for following 24 h. After incubation, single cell suspension was made for 3 D cell culture in the new 96 well plate. Plates were centrifuged and supernatants were removed from each plate (for 2 D and 3 D cell culture) followed by 60 min incubation at 60° C. The rest of the proliferation assay was performed according to the manufacturer instructions.
(§3) Calculation of IC50 data, curves and QC analysis is made by using Excel tools and GraphPadPrism software (La Jolla, CA), v. 5.03. In brief, individual concentration–effect curves are generated by plotting the logarithm of the tested concentration of tested compounds (X) versus corresponding percent inhibition values (Y) using least squares (ordinary) fit. […] QC criteria parameters (Z', S:B, R2, HillSlope) were checked for every IC50 curve.

NCI-H358 [2] = assay: BrdU proliferation assay, 3D cell culture; assay type: cell-based; settings: Homo sapiens, NCI-H358, 3D cell culture, ±SD, N = 2
Description: as §1, §2, §3

A549 [3] = assay: Cell viability assay, 3D hanging drop cell culture (CellTiter GLO 3D); assay type: cell-based; settings: Homo sapiens; A549, 3D hanging drop cell culture, 72 h; ±SD, N = 2; read-out: IC50 antitumor activity A549 3D
Description: (§4) Compounds are diluted 1:3. 500 nL (for 2 D cell culture) or 400 nL (for 3 D cell culture) of compound were transferred from mother plate to test plate by using Mosquito (TTP labtech). DMSO percentage in test concentrations was 0.5 − 1.0%. Starting concentration of the test compounds and standard compound doxorubicin was 50 µM (2 D cell culture) or 100 µM (3 D cell culture).
as §1, with “luminescence.” for “luminescence. The results for each of tested compounds are reported as growth percentages from two independent concentrations curves compared with the untreated control cells after drug exposure.”
(§5) Calculation of IC50 data, curves and QC analysis is made by using Excel tools and GraphPadPrism software (La Jolla, CA), v. […] QC criteria parameters (Z', S:B, R2, HillSlope) were checked for every IC50 curve.

NCI-H358 [4] = assay: as above; assay type: cell-based; settings: Homo sapiens, read-out: IC50 antitumor activity NCI-H358 3D
Description: as §4
as §1, with “luminescence.” for “luminescence. The results for each of tested compounds are reported as growth percentages from two independent concentrations curves compared with the untreated control cells after drug exposure.”
as §5

HCC827 [5] = assay: as above; assay type: cell-based; settings: Homo sapiens, read-out: IC50 antitumor activity HCC827 3D
Description: as §4
as §1, with “luminescence.” for “luminescence. The results for each of tested compounds are reported as growth percentages from two independent concentrations curves compared with the untreated control cells after drug exposure.”
as §5

A549 [6] = assay: MTS cell viability (cytotoxicity) assay, 2D cell culture; assay type: cell-based; settings: Homo sapiens, A549, 2D cell culture, 72 h, ±SD, N = 2, read-out: IC50 antitumor activity A549 2D
Description: as §4
(§6) Cells were grown in 96 well cell star polystyrene plates. 10,000 cells/well were seeded in wells 4 h prior the treatment with different compounds concentrations and incubated for 72 h. A cell viability assay was performed according to the manufacturer’s instruction, using CellTiter 96 aqueous solution, MTS kit (Promega, Madison, WI, USA). After 0.5–2 h of cell incubation with MTS in 2 D cell culture, the plates were read using PE EnVision absorbance at 490 nm. […] Since we prefer homogeneous assays (mix and read procedures) and therefore MTS is more practical (one step less than MTT). MTS is more sensitive and accurate in comparison with MTT assay.
as §5

NCI-H358 [7] = assay: as above; assay type: cell-based; settings: Homo sapiens, read-out: IC50 antitumor activity NCI-H358 2D
Description: as §4, §6, §5

HCC827 [8] = assay: as above; assay type: cell-based; settings: Homo sapiens, read-out: IC50 antitumor activity HCC827 2D
Description: as §4, §6, §5

NCI-H358 [9] = assay: BrdU proliferation assay, 2D cell culture; assay type: cell-based; settings: Homo sapiens, NCI-H358, 2D cell culture, ±SD, N = 2
Description: as §6, §2, §5

HCC827 [10] = assay: BrdU proliferation assay, 2D cell culture; assay type: cell-based; settings: Homo sapiens, HCC827, 2D cell culture, ±SD, N = 2
Description: as §6, §2, §5

HCC827 [11] = assay: BrdU proliferation assay, 3D cell culture; assay type: cell-based; settings: Homo sapiens, HCC827, 3D cell culture, ±SD, N = 2
Description: as §1, with “luminescence.” for “luminescence. The results for each of tested compounds are reported as growth percentages from two independent concentrations curves compared with the untreated control cells after drug exposure.”
as §2, §5

A549 [12] = assay: BrdU proliferation assay, 2D cell culture; assay type: cell-based; settings: Homo sapiens, A549, 2D cell culture, ±SD, N = 2
Description: Cells were grown in 96 well cell star polystyrene plates. 10,000 cells/well were seeded in wells 4 h prior the treatment with different compounds concentrations and incubated for 72 h. A cell viability assay was performed according to the manufacturer’s instruction, using CellTiter 96 aqueous solution, MTS kit (Promega, Madison, WI, USA). After 0.5–2 h of cell incubation with MTS in 2 D cell culture, the plates were read using PE EnVision absorbance at 490 nm. The results for each of tested compounds are reported as growth percentages from two independent concentrations curves compared with the untreated control cells after drug exposure. Since we prefer homogeneous assays (mix and read procedures) and therefore MTS is more practical (one step less than MTT). MTS is more sensitive and accurate in comparison with MTT assay.
as §2, §3

[13] = HCC827, 2D cell culture, 72 h, MTS, ±SD, N = 2
[14] = NCI-H358, 3D hanging drop cell culture, 72 h, ±SD, N = 2
[15] = HCC827, 3D hanging drop cell culture, 72 h, ±SD, N = 2
[16] = NCI-H358, 2D cell culture, 72 h, MTS, ±SD, N = 2

| IC50 (A549 [1]) | IC50 (NCI-H358 [2]) | IC50 (A549 [3]) | melting point | IC50 (NCI-H358 [9]) | IC50 (HCC827 [10]) | IC50 (HCC827 [11]) | IC50 (A549 [12]) | IC50 (NCI-H358 [4]; [14]) | IC50 (HCC827 [5]; [15]) | Compound | IC50 (NCI-H358 [4]; NCI-H358, 72 h) | IC50 (HCC827 [5]; HCC827, 72 h) | IC50 (A549 [6]) | IC50 (NCI-H358 [7]; NCI-H358, 72 h) | IC50 (HCC827 [8]; HCC827, 72 h) | IC50 (HCC827 [8]; [13]) | IC50 (NCI-H358 [7]; [16]) |
| --- | --- | --- | --- | --- | --- | --- | --- | --- | --- | --- | --- | --- | --- | --- | --- | --- | --- |
| > 100000 nM | > 100000 nM | > 100000 nM | 272 to 275 °C | > 50000 nM | > 50000 nM | > 100000 nM | > 50000 nM | > 100000 nM | > 100000 nM | Cl.c1ccc(-c2nc3ccc(C4=NCCCN4)cc3s2)cc1 [Compound 5a, 2-Phenyl-6–(3,4,5,6-tetrahydropyrimidin-1-ium-2-yl)benzothiazole chloride] | – | – | > 50000 nM | – | – | > 50000 nM | > 50000 nM |
| – | – | – | > 300 °C | – | – | – | – | – | – | c1ccc2c(-c3nc4ccc(C5=NCCCN5)cc4[nH]3)c[nH]c2c1 (as salt: chloride) [Compound 6e, 2-(1H-Indol-3-yl)-5(6)–(3,4,5,6-tetrahydropyrimidin-1-ium-2-yl)benzimidazole chloride] | – | – | – | – | – | – | – |
| 390 ± 20 nM | 340 ± 360 nM | 5000 ± 260 nM | – | 40 nM | 20 nM | 1030 ± 710 nM | 60 ± 10 nM | 250 ± 30 nM | 780 ± 80 nM | COc1cccc2c1C(=O)c1c(O)c3c(c(O)c1C2=O)C[C@@](O)(C(=O)CO)C[C@@H]3O[C@H]1C[C@H](N)[C@H](O)[C@H](C)O1 [Doxorubicin, reference compound] | – | – | 2000 ± 230 nM | – | – | 390 ± 50 nM | 110 ± 10 nM |
| 1250 ± 2820 nM | 1910 ± 90 nM | > 50000 nM | – | 1000 ± 280 nM | 2820 ± 1980 nM | 870 ± 1150 nM | > 25000 nM | 300 ± 20 nM | 2000 ± 110 nM | COc1cc2c(Nc3ccc(Br)cc3F)ncnc2cc1OCC1CCN(C)CC1 [Vandetanib, reference compound] | – | – | > 25000 nM | – | – | 810 ± 50 nM | 3000 ± 850 nM |
| > 100000 nM | > 100000 nM | > 100000 nM | > 300 °C | > 50000 nM | > 50000 nM | > 100000 nM | > 50000 nM | > 100000 nM | > 100000 nM | Cl.c1ccc2c(-c3nc4ccc(C5=NCCCN5)cc4s3)c[nH]c2c1 [Compound 5f, 2-(1H-Indol-3-yl)-6–(3,4,5,6-tetrahydropyrimidin-1-ium-2-yl)benzothiazole chloride] | – | – | > 50000 nM | – | – | > 50000 nM | > 50000 nM |

| Compound | IC50 (A549 [1]) | IC50 (NCI-H358 [2]) | IC50 (A549 [3]) | melting point | IC50 (NCI-H358 [9]) | IC50 (HCC827 [10]) | IC50 (HCC827 [11]) | IC50 (A549 [12]) | IC50 (NCI-H358 [4]; [14]) | IC50 (HCC827 [5]; [15]) | IC50 (NCI-H358 [4]; NCI-H358, 72 h) | IC50 (HCC827 [5]; HCC827, 72 h) | IC50 (A549 [6]) | IC50 (NCI-H358 [7]; NCI-H358, 72 h) | IC50 (HCC827 [8]; HCC827, 72 h) | IC50 (HCC827 [8]; [13]) | IC50 (NCI-H358 [7]; [16]) |
| --- | --- | --- | --- | --- | --- | --- | --- | --- | --- | --- | --- | --- | --- | --- | --- | --- | --- |
| Cl.c1ccc2c(c1)cc(-c1nc3ccc(C4=NCCCN4)cc3s1)c1ccccc12 [Compound 5i, 2-(Phenanthrene-9-yl)-6–(3,4,5,6-tetrahydropyrimidin-1-ium-2-yl)benzothiazole chloride] | > 100000 nM | > 100000 nM | > 100000 nM | 196 to 200 °C | > 50000 nM | > 50000 nM | > 100000 nM | > 50000 nM | – | – | > 100000 nM | > 100000 nM | > 50000 nM | > 50000 nM | > 50000 nM | – | – |
| CN[C@@H]1C[C@H]2O[C@@](C)([C@@H]1OC)n1c3ccccc3c3c4c(c5c6ccccc6n2c5c31)C(=O)NC4 [Staurosporine, reference compound] | – | – | – | – | – | 60 ± 10 nM | 40 ± 10 nM | – | – | – | – | – | – | – | – | 150 ± 10 nM | – |
